≈ marks a conversion by molar mass, not a printed value. Each block holds one compound with its values, some of them ahead of it. Numbered stars: 1 amine (or outer) side, 2 acyl side, 3 side chain; on linkers, the order of the positions; unused ones are H or OH. Peptide text beside a SMILES is read from it. * marks the point of attachment. C20 diacid = O=C(O)CCCCCCCCCCCCCCCCCCC(=O)*; γGlu = O=C(O)[C@H](CCC(=O)[*:2])N[*:1]
What was measured:
[1] = biological target: T1, human amylin receptor (human calcitonin receptor + human RAMP3), BHK tk'ts 13 cells (Homo sapiens, UniProt O60896+P30988); experiment: Assay (Va) binding to the human amylin receptor (whole cell); conditions: read-out: hAmylin-R binding IC50
T1 construct: expressed in transfected cells; host or cells: BHK tk'ts 13
Procedure: The day before the assay the cells were Seeded into Poly-D-Lysin coated 384W Opaque White, BD BioCoat plates (10000 cells/well) and Incubated overnight at 37° C., 5% CO2, 95% humidity.

[2] = biological target: T2, human amylin 3(a) receptor (human calcitonin receptor + RAMP-3), BHK570 cells (Homo sapiens, UniProt O60896+P30988); experiment: Assay (II)b functional CRE-luciferase assay without albumin, human amylin receptor; format: cell-based; conditions: Tested without HSA; read-out: hAmylin-R funct. EC50
T2 construct: host or cells: BHK570
Source text: (§1) Assay(II)b—Human Calcitonin and Amylin Receptor Assay without Albumin
(§2) 1. Luciferase Assay Outline
(§3) Activation of calcitonin and amylin (co-expression of calcitonin receptor and receptor activity modifying proteins (RAMP)) receptors lead to increased intracellular concentrations of cAMP. Consequently, transcription is activated by promoters containing multiple copies of the cAMP response element (CRE). It is thus possible to measure amylin activity by the use of a CRE luciferase reporter gene introduced into BHK cells also expressing calcitonin or amylin receptors.
(§4) 2. Construction of Calcitonin (a)—and Amylin 3(a)—Receptor/CRE-Luc Cell Line.
(§5) A BHK570 cell line was stably transfected with the human calcitonin receptor and a CRE-responsive luciferase reporter gene (Hollex-1 cell line, obtained from ZymoGenetics described in U.S. Pat. No. 5,622,839). The cell line was further transfected with RAMP-3, using standard methods. This turns the calcitonin receptor into an amylin 3(a) receptor. Methotrexate, Neomycin, and Hygromycin are selection markers for luciferase, the calcitonin receptor, and RAMP-3, respectively. To prepare the batches of frozen cells used in the luciferase assay described in the section below, the cells were cultured in growth medium (DMEM with 10% FBS, 1% Pen/Strep and 1 mM Napyruvate). […] Cells at approximately 80-90% confluence were washed with PBS and loosened from the plates with Versene. After centrifugation (2 min, 1300 rpm, in a Centrion Scientific centriuge C2 series with a BRK 5510 rotor head), the cell pellet was dissolved in 10% DMSO, 30% FBS and 60% growth medium and frozen (−80° C.) until utilization.
(§6) The day before the experiment, BHK calcitonin (a) receptor- or amylin 3(a)-receptor/CRE-luc cells were thawed, washed twice, and seeded in 40 μl growth medium on white 384 well culture plates (4.000 cells/well). On the assay day, the cells were washed 3 times in assay media (Dulbecco media W/o phenol red, 500 ml (Gibco, 11880-028); 0.1% ovalbumin; 10 mM Hepes pH 7.4; 1× Glutamin; 1% Pen/Strep). Then, 30 μl/well of sample diluted in assay buffer was added. After 3 hours of incubation at 37° C. and 5% CO2, the reaction was terminated by adding 30 μl/well SteadyLite Plus™. The plates were shaken at 300 rpm for 5 min at RT. Then, the plates were sealed and incubated at room temperature for 30 minutes. Finally, luminescence was tested on a TopCounter (Packard) in SPC (single photon counting) mode.
(§7) Additional Comment Regarding Use of Data Retrieved Via this Method
(§8) For the same reasons, measurements made in Assay IIa should not be compared in Assay IIb.

[3] = biological target: T3, human calcitonin (a) receptor, BHK570 cells (Homo sapiens, UniProt P30988); experiment: Assay (II)b functional CRE-luciferase assay without albumin, human calcitonin receptor; format: cell-based; conditions: Tested without HSA; read-out: hCTR funct. EC50
T3 construct: host or cells: BHK570
T3 sequence (P30988 25-474): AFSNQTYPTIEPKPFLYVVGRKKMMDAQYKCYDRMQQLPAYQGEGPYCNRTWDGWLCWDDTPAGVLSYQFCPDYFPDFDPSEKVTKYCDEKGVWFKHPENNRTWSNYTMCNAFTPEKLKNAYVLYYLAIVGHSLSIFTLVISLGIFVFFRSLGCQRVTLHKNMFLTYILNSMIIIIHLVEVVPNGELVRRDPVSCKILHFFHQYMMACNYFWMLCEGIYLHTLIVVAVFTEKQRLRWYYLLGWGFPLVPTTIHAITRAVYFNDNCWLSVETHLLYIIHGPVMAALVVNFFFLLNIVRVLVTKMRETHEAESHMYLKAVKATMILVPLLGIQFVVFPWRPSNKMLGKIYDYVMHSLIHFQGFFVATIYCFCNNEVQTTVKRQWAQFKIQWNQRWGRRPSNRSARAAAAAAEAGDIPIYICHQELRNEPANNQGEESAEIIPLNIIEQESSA
Source text: as §1, §2, §3, §4, §5, §6, §7, §8

[4] = Assay (IV) determination of solubility; format: physicochemical
Procedure: Assay (IV)—Determination of Solubility
The mimylin peptide was dissolved in water at ˜500 nmol/ml and mixed 1:1 with a series of buffers (100 mM glycylglycine pH 3.0, 100 mM glycylglycine pH 4.0, 100 mM glycylglycine pH 5.0, 100 mM bistrispropane pH 6.0, 100 mM bistrispropane pH 6.5, 100 mM bistrispropane pH 7.0, 100 mM bistrispropane pH 7.5, 100 mM bistrispropane pH 8.0).

rat calcitonin receptor = biological target: T4, rat calcitonin receptor (Rattus norvegicus, UniProt P32214); experiment: Assay (VIII) binding to the rat calcitonin receptor; conditions: membranes; read-out: rCT-R binding IC50
T4 construct: expressed in transfected cells; host or cells: BHK tk'ts 13 (transient, FuGENE 6)
T4 sequence (P32214 25-479 isoform P32214-2 limits assumed): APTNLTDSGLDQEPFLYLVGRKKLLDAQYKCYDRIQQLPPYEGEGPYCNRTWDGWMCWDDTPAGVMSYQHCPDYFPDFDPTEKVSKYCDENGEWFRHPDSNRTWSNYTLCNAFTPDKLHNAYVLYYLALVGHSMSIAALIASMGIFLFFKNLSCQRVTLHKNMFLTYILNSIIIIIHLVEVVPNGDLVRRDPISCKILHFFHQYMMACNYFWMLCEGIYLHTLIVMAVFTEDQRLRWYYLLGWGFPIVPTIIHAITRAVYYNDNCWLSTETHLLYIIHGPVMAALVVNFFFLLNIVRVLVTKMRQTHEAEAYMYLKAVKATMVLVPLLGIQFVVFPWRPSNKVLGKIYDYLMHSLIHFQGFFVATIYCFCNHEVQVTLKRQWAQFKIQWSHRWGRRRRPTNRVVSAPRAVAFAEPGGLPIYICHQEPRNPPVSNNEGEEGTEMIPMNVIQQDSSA
Outline: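 Affinity given as IC50 from a one-site competition fit of bound radioactivity, counted by scintillation after cold HBSS washes and NaOH/SDS lysis. Membranes came from BHK tk'ts 13 cells transiently expressing the rat receptor; other conditions followed the human calcitonin receptor protocol.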

T2 sequence (O60896 24-148, one chain of several): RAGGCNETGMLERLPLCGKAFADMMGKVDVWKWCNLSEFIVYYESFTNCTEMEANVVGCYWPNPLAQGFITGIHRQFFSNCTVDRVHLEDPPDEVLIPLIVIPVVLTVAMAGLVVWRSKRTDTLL
T1 sequence (O60896 24-148, one chain of several): as above

IC50 [1]: 71400 pM
Compound: CC(C)C[C@H](NC(=O)[C@H](CCCNC(=N)N)NC(=O)CNC(=O)[C@H](CC(C)C)NC(=O)[C@@H](NC(=O)[C@H](C)NC(=O)[C@@H](NC(=O)[C@@H](NC(=O)[C@H](CC(C)C)NC(=O)[C@H](CCC(=O)O)NC(=O)[C@H](CO)NC(=O)[C@H](C)N)[C@@H](C)O)[C@@H](C)O)C(C)C)C(=O)N[C@@H](CCC(=O)O)C(=O)N[C@@H](C)C(=O)N[C@@H](CCC(=O)O)C(=O)N[C@@H](CC(C)C)C(=O)N[C@@H](Cc1c[nH]cn1)C(=O)N[C@@H](CCC(=O)O)C(=O)N[C@@H](CC(C)C)C(=O)N[C@H](C(=O)N[C@H](C(=O)N[C@@H](CC(C)C)C(=O)N1CCC[C@H]1C(=O)N[C@@H](CCCNC(=N)N)C(=O)N[C@H](C(=O)N[C@@H](CCC(=O)O)C(=O)N[C@H](C(=O)NCC(=O)N[C@H](C(=O)NCC(=O)N[C@H](C(=O)N1CCC[C@H]1C(N)=O)[C@@H](C)O)[C@@H](C)O)[C@@H](C)O)[C@@H](C)O)[C@@H](C)O)[C@@H](C)O [106bb, H—ASELTTAVLGRLEAELHELTTLPRTETGTGTP—NH2] (H-ASELTTAVLGRLEAELHELTTLPRTETGTGTP-NH2)

EC50 [2]: 8 pM | EC50 [3]: 4 pM
Compound: CC(C)C[C@H](NC(=O)CNC(=O)[C@H](CO)NC(=O)[C@H](C)N)C(=O)N[C@@H](CO)C(=O)N[C@H](C(=O)N[C@@H](C)C(=O)N[C@H](C(=O)N[C@@H](CC(C)C)C(=O)NCC(=O)N[C@@H](CCCNC(=N)N)C(=O)N[C@@H](CC(C)C)C(=O)N[C@@H](CO)C(=O)N[C@@H](CCC(N)=O)C(=O)N[C@@H](CCC(=O)O)C(=O)N[C@@H](CC(C)C)C(=O)N[C@@H](Cc1c[nH]cn1)C(=O)N[C@@H](CCC(=O)O)C(=O)N[C@@H](CC(C)C)C(=O)N[C@@H](CCC(N)=O)C(=O)N[C@H](C(=O)N[C@@H](Cc1ccc(O)cc1)C(=O)N1CCC[C@H]1C(=O)N[C@@H](CCCNC(=N)N)C(=O)N[C@H](C(=O)N[C@@H](CCC(=O)O)C(=O)N[C@H](C(=O)NCC(=O)N[C@@H](CO)C(=O)NCC(=O)N[C@H](C(=O)N[C@@H](Cc1ccc(O)cc1)C(N)=O)[C@@H](C)O)[C@@H](C)O)[C@@H](C)O)[C@@H](C)O)C(C)C)[C@@H](C)O [118bb, [des1, 4G, 9V, 15Q, 21Q, 23Y, 30S, 31G, 32T, 33Y]mimylin]

EC50 [2]: 5 pM | EC50 [3]: 4 pM
Compound: CC(C)C[C@H](NC(=O)CNC(=O)[C@H](CO)NC(=O)[C@H](C)N)C(=O)N[C@@H](CO)C(=O)N[C@H](C(=O)N[C@@H](C)C(=O)N[C@H](C(=O)N[C@@H](CC(C)C)C(=O)NCC(=O)N[C@@H](CCCNC(=N)N)C(=O)N[C@@H](CC(C)C)C(=O)N[C@@H](CO)C(=O)N[C@@H](CCC(N)=O)C(=O)N[C@@H](CCC(=O)O)C(=O)N[C@@H](CC(C)C)C(=O)N[C@@H](Cc1c[nH]cn1)C(=O)N[C@@H](CCC(=O)O)C(=O)N[C@@H](CC(C)C)C(=O)N[C@@H](CCC(N)=O)C(=O)N[C@H](C(=O)N[C@@H](Cc1ccc(O)cc1)C(=O)N1CCC[C@H]1C(=O)N[C@@H](CCCNC(=N)N)C(=O)N[C@H](C(=O)N[C@@H](CCC(=O)O)C(=O)N[C@H](C(=O)NCC(=O)N[C@@H](CO)C(=O)NCC(=O)N[C@H](C(=O)N[C@@H](Cc1ccc(O)cc1)C(N)=O)[C@@H](C)O)[C@@H](C)O)[C@@H](C)O)[C@@H](C)O)[C@@H](C)O)[C@@H](C)O [124bb, [des1, 4G, 9T, 15Q, 21Q, 23Y, 30S, 31G, 32T, 33Y]mimylin] (H-ASGLSTATLGRLSQELHELQTYPRTETGSGTY-NH2; N-terminus and C-terminus assumed)

Solubility ([4]; pH 3.0): ≧200 μM | solubility at 18 h ([4]; pH 4.0): 10 µM (≈ 37.9 µg/mL) | Solubility ([4]; pH 5.0): ≧200 μM | Solubility ([4]; pH 6.0): ≧200 μM | Solubility ([4]; pH 6.5): ≧200 μM | Solubility ([4]; pH 7.0): ≧200 μM | Solubility ([4]; pH 7.5): ≧200 μM | Solubility ([4]; pH 8.0): ≧200 μM | IC50 (rat calcitonin receptor): 246 pM
Compound: CC(C)C[C@H](NC(=O)CNC(=O)[C@H](CO)NC(=O)[C@H](C)NC(=O)CC[C@H](NC(=O)CCCCCCCCCCCCCCCCCCC(=O)O)C(=O)O)C(=O)N[C@@H](CO)C(=O)N[C@H](C(=O)N[C@@H](C)C(=O)N[C@H](C(=O)N[C@@H](CC(C)C)C(=O)NCC(=O)N[C@@H](CCCCN)C(=O)N[C@@H](CC(C)C)C(=O)N[C@@H](CO)C(=O)N[C@@H](CCC(N)=O)C(=O)N[C@@H](CCC(=O)O)C(=O)N[C@@H](CC(C)C)C(=O)N[C@@H](Cc1cnc[nH]1)C(=O)N[C@@H](CCC(=O)O)C(=O)N[C@@H](CC(C)C)C(=O)N[C@@H](CCC(N)=O)C(=O)N[C@H](C(=O)N[C@@H](Cc1ccc(O)cc1)C(=O)N1CCC[C@H]1C(=O)N1CCC[C@H]1C(=O)N[C@H](C(=O)N[C@@H](CCC(=O)O)C(=O)N[C@H](C(=O)NCC(=O)N[C@@H](CO)C(=O)NCC(=O)N[C@H](C(=O)N[C@@H](Cc1ccc(O)cc1)C(N)=O)[C@@H](C)O)[C@@H](C)O)[C@@H](C)O)[C@@H](C)O)C(C)C)[C@@H](C)O [compound 131, [N-terminal(C20 diacid-gGlu), des1, 4G, 9V, 12K, 15Q, 21Q, 23Y, 25P, 30S, 31G, 32T, 33Y]mimylin] ({C20 diacid-γGlu}-ASGLSTAVLGKLSQELHELQTYPPTETGSGTY-NH2)

— US9593149B2, “Amylin and calcitonin receptor agonist” (Novo Nordisk A/S, priority 2014, dated 2017)
